Experimental findings from US20240316171A1, “COMPOSITIONS AND METHODS FOR TARGETED IMMUNOTHERAPY” (Dana-Farber Cancer Institute, Inc., priority 2018, published 2024) are described below.

Like-named read-outs stand apart in the source and are kept apart here.

Series [1] is described as follows: Uncaging in samples not treated with H2O2. Format: physicochemical. From the text: Fluorescence-detected HPLC confirmed that H2O2 reaction with compound 3 produced the desired product (4). […] Addition of 0.5M EDTA, pH 8.0 (Ultrapure Grade, Boston BioProducts) to the samples remedied the undesired uncaging of the compounds.
Series [2] is described as follows: Uncaging of compound 1 with hydrogen peroxide (fluorescence, HPLC). To be noted: relatively high H2O2 concentrations (100 mM), HPLC analysis of products. The method, then: Hydrogen peroxide is expected to uncage compound 1 to produce compound 2. […] 20 μM compound 1 samples were prepared by 1:100 dilution of stock into 50 mM HEPES pH 7 buffer and the reaction started by […] to give final concentrations of 0.3, 0.03 or 0.003 percent. The concentration of the 30% stock H2O2 was confirmed by measuring the absorbance at 240 nm using an extinction coefficient of 43.6 M^−1 cm^−1.
A time-course of the kinetic response of compound 1 to H2O2 at 100 mM H2O2 is illustrated in FIG. 10. Multiple (3) peaks, including compound 1, were observed by HPLC. […] The possible side products are shown below.

Series [3] in a line: Stock solutions/solubility. Format: physicochemical. Conditions: thermodynamic from solid. The method, then: Compound 1 was not soluble in buffer solution 50 mM 4-(2-hydroxyethyl)-1-piperazineethanesulfonic acid (HEPES) pH 7 at 2 mg/ml at room temperature overnight. In contrast, DMSO readily dissolved compound 1 at 2 mg/ml forming a clear solution. Compound 2 dissolved immediately at 1.5 mg/ml in buffer solution 50 mM HEPES pH 7 forming a yellow solution.

The mark [4] stands for this setting: 50 mM HEPES buffer, aqueous buffer, 50 mM HEPES pH 7, compound 1 at room temperature overnight, read-out: solubility in buffer solution.

On to `CC1(C)[C@@H]2CC3OB(c4ccc5c(c4)Oc4cc(B6OC7C[C@@H]8C[C@@H](C8(C)C)[C@]7(C)O6)ccc4C54OC(=O)c5cc(NC(=O)CCOCCOCCNC(=O)CCN6C(=O)C=CC6=O)ccc54)O[C@@]3(C)[C@H]1C2` (stereo partly drawn) [Compound 1, 3-(2,5-dioxo-2,5-dihydro-1H-pyrrol-1-yl)-N-(2-(2-(3-oxo-3-((3-oxo-3′,6′-bis((3aS,4S,6S)-3a,5,5-trimethylhexahydro-4,6-methanobenzo[d][1,3,2]dioxaborol-2-yl)-3H-spiro[isobenzofuran-1,9′-xanthen]-5-yl)amino)propoxy)ethoxy)ethyl)propanamide], for which the “uncaging without H2O2” value in series [1] is recorded as “Slow uncaging”. In addition, the “stability of maleimide moiety in the presence of H2O2” value in series [2] was “maleimide moiety is unstable”. Further, the solubility is under 2000 µg/mL in series [3] (setting [4]) and at least 2000 µg/mL in series [3] (organic solvent or mixture, DMSO, clear solution, read-out: solubility in DMSO).

In the case of `O=C(CCN1C(=O)C=CC1=O)NCCOCCOCCC(=O)Nc1ccc2c(c1)C(=O)OC21c2ccc(O)cc2Oc2cc(O)ccc21` [Compound 2, N-(3′,6′-dihydroxy-3-oxo-3H-spiro[isobenzofuran-1,9′-xanthen]-5-yl)-3-(2-(2-(3-(2,5-dioxo-2,5-dihydro-1H-pyrrol-1-yl)propanamido)ethoxy)ethoxy)propanamide], the solubility in series [3] (setting [4]) was at least 1500 µg/mL.

On to `CC1(C)[C@@H]2C[C@H]1C1OB(c3ccc4c(c3)Oc3cc(B5OC6C[C@@H]7C[C@@H](C7(C)C)[C@]6(C)O5)ccc3C43OC(=O)c4cc(NC(=O)CCOCCOCCNC(=O)CCN5C(=O)CC(SC[C@H](N)C(=O)O)C5=O)ccc43)O[C@@]1(C)C2` (stereo partly drawn) [Compound 3, S-(2,5-dioxo-1-(3-oxo-3-((2-(2-(3-oxo-3-((3-oxo-3′-((3aS,4S,6S)-3a,5,5-trimethylhexahydro-4,6-methanobenzo[d][1,3,2]dioxaborol-2-yl)-6′-((4R,6R,7aS)-5,5,7a-trimethylhexahydro-4,6-methanobenzo[d][1,3,2]dioxaborol-2-yl)-3H-spiro[isobenzofuran-1,9′-xanthen]-5-yl)amino)propoxy)ethoxy)ethyl)amino)propyl)pyrrolidin-3-yl)cysteine], for which the “uncaging without H2O2” value in series [1] is listed as “Slow uncaging”.
